The assay addresses T1, PD-1-Ig binding to PD-L1-TVMV-His (PD-L1-His) (Homo sapiens, UniProt Q9NZQ7).
T1 construct: hPDL1(19-239)-TVMV-His; made in house; host or cells: HEK293T cells
Description: PD-1/PD-L1 Homogenous Time-Resolved Fluorescence (HTRF) binding assay. Conditions: PD-1-Ig (20 nM) / PD-L1-His (10 nM). Summed up:
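HTRF competition: compound pre-incubated 15 min with PD-L1-His (10 nM final), then PD-1-Ig (20 nM final) added for 15 min in dPBS, 0.1% BSA, 0.05% Tween-20. Detection with Eu-cryptate anti-Ig (1 nM) and APC anti-His (20 nM) antibodies.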
On the technique in general: Time-resolved FRET reads energy transfer from a long-lived donor to a nearby acceptor.

18 molecules from patent publication US9732119B2, “Immunomodulators” (BRISTOL-MYERS SQUIBB COMPANY, priority 2014, dated 2017) can be followed below.

T1 sequence (Q9NZQ7 with tags, fused parts or gaps): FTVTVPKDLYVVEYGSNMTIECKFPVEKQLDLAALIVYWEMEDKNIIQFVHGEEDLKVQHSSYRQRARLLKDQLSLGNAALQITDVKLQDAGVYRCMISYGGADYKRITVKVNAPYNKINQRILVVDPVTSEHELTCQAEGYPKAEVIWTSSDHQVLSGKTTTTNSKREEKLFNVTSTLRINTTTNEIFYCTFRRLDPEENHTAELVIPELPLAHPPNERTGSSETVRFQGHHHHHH

What is called IC50 is the concentration at which inhibition is half-maximal. Read a high IC50 as a need for much substance. `CCCC[C@H]1C(=O)N(C)[C@@H](CCCC)C(=O)N[C@@H](CC(C)C)C(=O)N[C@H](C(N)=O)CNCC(=O)N[C@@H](Cc2ccc(O)cc2)C(=O)N2CCCC[C@H]2C(=O)N[C@@H](CC(N)=O)C(=O)N2CCC[C@H]2C(=O)N[C@@H](CCC(N)=O)C(=O)N[C@@H](CC(C)C)C(=O)N2C[C@H](O)C[C@H]2C(=O)N[C@@H](Cc2c[nH]c3ccccc23)C(=O)N[C@@H](CC(N)=O)C(=O)N[C@@H](Cc2cn(CC(=O)O)c3ccccc23)C(=O)N1C` [Example 9026]: where the note is “range classes”, the IC50 was 1 to 9.9 nM.
Still for that read-out and setting: then `CCCC[C@H]1C(=O)N(C)[C@@H](CCCC)C(=O)N[C@@H](CC(C)C)C(=O)N[C@H](C(N)=O)CNCC(=O)N[C@@H](Cc2ccc(O)cc2)C(=O)N2CCCC[C@H]2C(=O)N[C@@H](CC(N)=O)C(=O)N2CCC[C@H]2C(=O)N[C@@H](CCC(N)=O)C(=O)N[C@@H](CC(=O)O)C(=O)N2C[C@H](O)C[C@H]2C(=O)N[C@@H](Cc2c[nH]c3ccccc23)C(=O)N[C@@H](CC(N)=O)C(=O)N[C@@H](Cc2cn(CC(=O)O)c3ccccc23)C(=O)N1C` [Example 9027], with 1 to 9.9 nM; and `CCCC[C@H]1C(=O)N(C)[C@@H](CCCC)C(=O)N[C@@H](CC(C)C)C(=O)N[C@H](C(N)=O)CNCC(=O)N[C@@H](Cc2ccc(O)cc2)C(=O)N2CCCC[C@H]2C(=O)N[C@@H](CC(N)=O)C(=O)N2CCC[C@H]2C(=O)N[C@@H](CCC(N)=O)C(=O)N[C@@H](CCC(=O)O)C(=O)N2C[C@H](O)C[C@H]2C(=O)N[C@@H](Cc2c[nH]c3ccccc23)C(=O)N[C@@H](CC(N)=O)C(=O)N[C@@H](Cc2cn(CC(=O)O)c3ccccc23)C(=O)N1C` [Example 9028], with 1 to 9.9 nM; and `CCCC[C@H]1C(=O)N(C)[C@@H](CCCC)C(=O)N[C@@H](CC(C)C)C(=O)N[C@H](C(N)=O)CNCC(=O)N[C@@H](Cc2ccc(O)cc2)C(=O)N2CCCC[C@H]2C(=O)N[C@@H](CC(N)=O)C(=O)N2CCC[C@H]2C(=O)N[C@@H](CCC(N)=O)C(=O)N[C@@H](CCC(N)=O)C(=O)N2C[C@H](O)C[C@H]2C(=O)N[C@@H](Cc2c[nH]c3ccccc23)C(=O)N[C@@H](CC(N)=O)C(=O)N[C@@H](Cc2cn(CC(=O)O)c3ccccc23)C(=O)N1C` [Example 9029], with 1 to 9.9 nM.
In turn, `CCCC[C@H]1C(=O)N(C)[C@@H](CCCC)C(=O)N[C@@H](CC(C)C)C(=O)N[C@H](C(N)=O)CNCC(=O)N[C@@H](Cc2ccc(F)cc2)C(=O)N2CCCC[C@H]2C(=O)N[C@@H](CC(N)=O)C(=O)N2CCC[C@H]2C(=O)N[C@@H](CCC(N)=O)C(=O)N[C@@H](CC(C)C)C(=O)N2C[C@H](O)C[C@H]2C(=O)N[C@@H](Cc2c[nH]c3ccccc23)C(=O)N[C@@H](CC(N)=O)C(=O)N[C@@H](Cc2cn(CC(=O)O)c3ccccc23)C(=O)N1C` [Example 9030] returned a half-inhibitory concentration (IC50) (range classes) of 10 to 99 nM.
For the setting “range classes”, `CCCC[C@H]1C(=O)N(C)[C@@H](CCCC)C(=O)N[C@@H](CC(C)C)C(=O)N[C@H](C(N)=O)CNCC(=O)N[C@@H](Cc2ccc(F)cc2)C(=O)N2CCCC[C@H]2C(=O)N[C@@H](CC(N)=O)C(=O)N2CCC[C@H]2C(=O)N[C@@H](CCC(N)=O)C(=O)N[C@@H](CC(=O)O)C(=O)N2C[C@H](O)C[C@H]2C(=O)N[C@@H](Cc2c[nH]c3ccccc23)C(=O)N[C@@H](CC(N)=O)C(=O)N[C@@H](Cc2cn(CC(=O)O)c3ccccc23)C(=O)N1C` [Example 9031] gave an IC50 of 1 to 9.9 nM.
As for `CCCC[C@H]1C(=O)N(C)[C@@H](CCCC)C(=O)N[C@@H](CC(C)C)C(=O)N[C@H](C(N)=O)CNCC(=O)N[C@@H](Cc2ccc(F)cc2)C(=O)N2CCCC[C@H]2C(=O)N[C@@H](CC(N)=O)C(=O)N2CCC[C@H]2C(=O)N[C@@H](CCC(N)=O)C(=O)N[C@@H](CCC(=O)O)C(=O)N2C[C@H](O)C[C@H]2C(=O)N[C@@H](Cc2c[nH]c3ccccc23)C(=O)N[C@@H](CC(N)=O)C(=O)N[C@@H](Cc2cn(CC(=O)O)c3ccccc23)C(=O)N1C` [Example 9032], where the note is “range classes”, the IC50 fell in the range of 1 to 9.9 nM.
Consider `CCCC[C@H]1C(=O)N(C)[C@@H](CCCC)C(=O)N[C@@H](CC(C)C)C(=O)N[C@H](C(N)=O)CNCC(=O)N[C@@H](Cc2ccc(F)cc2)C(=O)N2CCCC[C@H]2C(=O)N[C@@H](CC(N)=O)C(=O)N2CCC[C@H]2C(=O)N[C@@H](CCC(N)=O)C(=O)N[C@@H](CCC(N)=O)C(=O)N2C[C@H](O)C[C@H]2C(=O)N[C@@H](Cc2c[nH]c3ccccc23)C(=O)N[C@@H](CC(N)=O)C(=O)N[C@@H](Cc2cn(CC(=O)O)c3ccccc23)C(=O)N1C` [Example 9033], for which the IC50 (range classes) was in the range of 1 to 9.9 nM.
The same measure, in the same setting: then `CCCC[C@H]1C(=O)N(C)[C@@H](CCCC)C(=O)N[C@@H](CC(C)C)C(=O)N[C@H](C(N)=O)CNCC(=O)N[C@@H](Cc2ccc(O)cc2)C(=O)N2CCCC[C@H]2C(=O)N[C@@H](CC(=O)O)C(=O)N2CCC[C@H]2C(=O)N[C@@H](CCC(N)=O)C(=O)N[C@@H](CC(C)C)C(=O)N2C[C@H](O)C[C@H]2C(=O)N[C@@H](Cc2c[nH]c3ccccc23)C(=O)N[C@@H](CC(N)=O)C(=O)N[C@@H](Cc2cn(CC(=O)O)c3ccccc23)C(=O)N1C` [Example 9034], with 1 to 9.9 nM.
Take `CCCC[C@H]1C(=O)N(C)[C@@H](CCCC)C(=O)N[C@@H](CC(C)C)C(=O)N[C@H](C(N)=O)CNCC(=O)N[C@@H](Cc2ccc(O)cc2)C(=O)N2CCCC[C@H]2C(=O)N[C@@H](CC(=O)O)C(=O)N2CCC[C@H]2C(=O)N[C@@H](CCC(N)=O)C(=O)N[C@@H](CC(=O)O)C(=O)N2C[C@H](O)C[C@H]2C(=O)N[C@@H](Cc2c[nH]c3ccccc23)C(=O)N[C@@H](CC(N)=O)C(=O)N[C@@H](Cc2cn(CC(=O)O)c3ccccc23)C(=O)N1C` [Example 9035]: the 50% inhibitory concentration (IC50) (range classes) lay within 1 to 9.9 nM.
In turn, `CCCC[C@H]1C(=O)N(C)[C@@H](CCCC)C(=O)N[C@@H](CC(C)C)C(=O)N[C@H](C(N)=O)CNCC(=O)N[C@@H](Cc2ccc(O)cc2)C(=O)N2CCCC[C@H]2C(=O)N[C@@H](CC(=O)O)C(=O)N2CCC[C@H]2C(=O)N[C@@H](CCC(N)=O)C(=O)N[C@@H](CCC(N)=O)C(=O)N2C[C@H](O)C[C@H]2C(=O)N[C@@H](Cc2c[nH]c3ccccc23)C(=O)N[C@@H](CC(N)=O)C(=O)N[C@@H](Cc2cn(CC(=O)O)c3ccccc23)C(=O)N1C` [Example 9037] came in with an IC50 (range classes) of 1 to 9.9 nM.
Still for that read-out and setting: under `CCCC[C@H]1C(=O)N(C)[C@@H](CCCC)C(=O)N[C@@H](CC(C)C)C(=O)N[C@H](C(N)=O)CNCC(=O)N[C@@H](Cc2ccc(F)cc2)C(=O)N2CCCC[C@H]2C(=O)N[C@@H](CC(=O)O)C(=O)N2CCC[C@H]2C(=O)N[C@@H](CCC(N)=O)C(=O)N[C@@H](CC(C)C)C(=O)N2C[C@H](O)C[C@H]2C(=O)N[C@@H](Cc2c[nH]c3ccccc23)C(=O)N[C@@H](CC(N)=O)C(=O)N[C@@H](Cc2cn(CC(=O)O)c3ccccc23)C(=O)N1C` [Example 9038] stands 1 to 9.9 nM.
On the same count and under the same terms, under `CCCC[C@H]1C(=O)N(C)[C@@H](CCCC)C(=O)N[C@@H](CC(C)C)C(=O)N[C@H](C(N)=O)CNCC(=O)N[C@@H](Cc2ccc(F)cc2)C(=O)N2CCCC[C@H]2C(=O)N[C@@H](CC(=O)O)C(=O)N2CCC[C@H]2C(=O)N[C@@H](CCC(N)=O)C(=O)N[C@@H](CC(=O)O)C(=O)N2C[C@H](O)C[C@H]2C(=O)N[C@@H](Cc2c[nH]c3ccccc23)C(=O)N[C@@H](CC(N)=O)C(=O)N[C@@H](Cc2cn(CC(=O)O)c3ccccc23)C(=O)N1C` [Example 9039] stands 1 to 9.9 nM; under `CCCC[C@H]1C(=O)N(C)[C@@H](CCCC)C(=O)N[C@@H](CC(C)C)C(=O)N[C@H](C(N)=O)CNCC(=O)N[C@@H](Cc2ccc(F)cc2)C(=O)N2CCCC[C@H]2C(=O)N[C@@H](CC(=O)O)C(=O)N2CCC[C@H]2C(=O)N[C@@H](CCC(N)=O)C(=O)N[C@@H](CCC(=O)O)C(=O)N2C[C@H](O)C[C@H]2C(=O)N[C@@H](Cc2c[nH]c3ccccc23)C(=O)N[C@@H](CC(N)=O)C(=O)N[C@@H](Cc2cn(CC(=O)O)c3ccccc23)C(=O)N1C` [Example 9040], 1 to 9.9 nM.
`CCCC[C@H]1C(=O)N(C)[C@@H](CCCC)C(=O)N[C@@H](CC(C)C)C(=O)N[C@H](C(N)=O)CNCC(=O)N[C@@H](Cc2ccc(F)cc2)C(=O)N2CCCC[C@H]2C(=O)N[C@@H](CC(=O)O)C(=O)N2CCC[C@H]2C(=O)N[C@@H](CCC(N)=O)C(=O)N[C@@H](CCC(N)=O)C(=O)N2C[C@H](O)C[C@H]2C(=O)N[C@@H](Cc2c[nH]c3ccccc23)C(=O)N[C@@H](CC(N)=O)C(=O)N[C@@H](Cc2cn(CC(=O)O)c3ccccc23)C(=O)N1C` [Example 9041]: where the note is “numeric values”, the concentration for half-maximal inhibition (IC50) amounted to 5 nM.
For the setting “range classes”, `CCCC[C@H]1C(=O)N(C)[C@@H](CCCC)C(=O)N[C@@H](CCC(=O)O)C(=O)N[C@H](C(N)=O)CNCC(=O)N[C@@H](Cc2ccc(O)cc2)C(=O)N2CCCC[C@H]2C(=O)N[C@@H](CC(N)=O)C(=O)N2CCC[C@H]2C(=O)N[C@@H](CCC(N)=O)C(=O)N[C@@H](CC(C)C)C(=O)N2C[C@H](O)C[C@H]2C(=O)N[C@@H](Cc2c[nH]c3ccccc23)C(=O)N[C@@H](CC(N)=O)C(=O)N[C@@H](Cc2cn(CC(=O)O)c3ccccc23)C(=O)N1C` [Example 9042] returned an IC50 of 1 to 9.9 nM.
In turn, `CCCC[C@H]1C(=O)N(C)[C@@H](CCCC)C(=O)N[C@@H](CCC(=O)O)C(=O)N[C@H](C(N)=O)CNCC(=O)N[C@@H](Cc2ccc(O)cc2)C(=O)N2CCCC[C@H]2C(=O)N[C@@H](CC(N)=O)C(=O)N2CCC[C@H]2C(=O)N[C@@H](CCC(N)=O)C(=O)N[C@@H](CC(=O)O)C(=O)N2C[C@H](O)C[C@H]2C(=O)N[C@@H](Cc2c[nH]c3ccccc23)C(=O)N[C@@H](CC(N)=O)C(=O)N[C@@H](Cc2cn(CC(=O)O)c3ccccc23)C(=O)N1C` [Example 9043] came in with an IC50 (range classes) of 1 to 9.9 nM.
For the molecule `CCCC[C@H]1C(=O)N(C)[C@@H](CCCC)C(=O)N[C@@H](CCC(=O)O)C(=O)N[C@H](C(N)=O)CNCC(=O)N[C@@H](Cc2ccc(O)cc2)C(=O)N2CCCC[C@H]2C(=O)N[C@@H](CC(N)=O)C(=O)N2CCC[C@H]2C(=O)N[C@@H](CCC(N)=O)C(=O)N[C@@H](CCC(=O)O)C(=O)N2C[C@H](O)C[C@H]2C(=O)N[C@@H](Cc2c[nH]c3ccccc23)C(=O)N[C@@H](CC(N)=O)C(=O)N[C@@H](Cc2cn(CC(=O)O)c3ccccc23)C(=O)N1C` [Example 9044], the IC50 (range classes) lay in the range of 1 to 9.9 nM.
